From publication PMC11386433 (Journal of Medicinal Chemistry, 2024) come the findings set out here.

Molecules are shown by their SMILES. Read-outs that look alike come from different tables or passages of the source.

Test [1] concerns the target T1, δOR (Homo sapiens, UniProt P41143). Kind of test: cell-based. Details: host or cells: HEK293T stably expressing EA-β-arrestin-2. The note with it: for Emax: HEK-293T, read-out: Emax (agonist properties); for response in agonist mode: β-arrestin-2 recruitment. The test is classed as cell-based.
A further test deals with T2, human μOR (Homo sapiens, UniProt P35372).
T2 construct: host or cells: HEK293T (membrane preparation)
Kind of test: biochemical. The test is classed as binding.

Another test has as its target T3, human κOR (Homo sapiens, UniProt P41145).
T3 construct: host or cells: HEK293T (membrane preparation)
The test can be described thus: biochemical. The test is classed as binding.

A further test deals with T4, wild-type human δOR (Homo sapiens, UniProt P41143).
T4 construct: host or cells: CHO-K1
The test can be described thus: Single-molecule microscopy of CHO cells transfected with wild-type δOR. The test is classed as cell-based.

Test [2] concerns the target T1, δOR. Kind of test: cell-based. The test is classed as cell-based. Details: Gαqi gift from The J. David Gladstone Institutes; host or cells: HEK293T. The note with it: for Emax: HEK-293T, read-out: Emax (agonist properties); for response in agonist mode: IP-One assay.
The target of test [3] is T1, δOR. The test is classed as binding. Also noted: host or cells: CHO-K1. The settings on record: labeled with 1 μM.
Test [4] addresses T5, κOR (SNAP-opioid receptor) (Homo sapiens, UniProt P41145).
T5 construct: host or cells: HEK293T
The test can be described thus: HTRF saturation binding of fluorescent ligand to SNAP-opioid receptors on HEK293T cells. On the technique in general: TR-FRET usually uses a lanthanide donor and a delayed reading to cut background.

The target in test [5] is T6, δOR (SNAP-opioid receptor) (Homo sapiens, UniProt P41143).
T6 construct: host or cells: HEK293T
The test is described as above. The note with it: HTRF saturation curve, 1 h room temperature, nonspecific binding with naloxone 100 μM.

Test [6] has as its target T7, μOR (SNAP-opioid receptor) (Homo sapiens, UniProt P35372).
T7 construct: host or cells: HEK293T
The test is described as above.

[7] abbreviates: HTRF saturation curve, value of high uncertainty, saturation not reached.
Setting [8] is: selectivity ratio of HTRF Kd values, high uncertainty.

The IC50 is the concentration needed to halve the response being measured. Higher therefore signals weaker potency. Broadly, the Emax is the maximal effect, on the per cent scale that the assay sets. One may read the Ki as the equilibrium dissociation constant of an inhibitor or competing ligand from its target. The Kd is a measure of binding affinity in units of concentration. A higher Kd goes with lower affinity.

T3 sequence (P41145 whole entry): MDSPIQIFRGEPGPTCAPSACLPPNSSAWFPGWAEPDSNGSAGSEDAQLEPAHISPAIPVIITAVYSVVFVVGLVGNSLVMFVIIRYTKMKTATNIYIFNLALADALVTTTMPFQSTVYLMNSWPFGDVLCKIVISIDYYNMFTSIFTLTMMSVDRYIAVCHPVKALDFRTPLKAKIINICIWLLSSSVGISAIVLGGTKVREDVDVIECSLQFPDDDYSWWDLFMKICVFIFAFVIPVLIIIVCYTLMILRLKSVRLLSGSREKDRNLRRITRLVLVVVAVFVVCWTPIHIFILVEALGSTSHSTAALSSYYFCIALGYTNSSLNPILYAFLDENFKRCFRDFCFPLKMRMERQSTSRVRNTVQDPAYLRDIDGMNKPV
T1 sequence (P41143 whole entry): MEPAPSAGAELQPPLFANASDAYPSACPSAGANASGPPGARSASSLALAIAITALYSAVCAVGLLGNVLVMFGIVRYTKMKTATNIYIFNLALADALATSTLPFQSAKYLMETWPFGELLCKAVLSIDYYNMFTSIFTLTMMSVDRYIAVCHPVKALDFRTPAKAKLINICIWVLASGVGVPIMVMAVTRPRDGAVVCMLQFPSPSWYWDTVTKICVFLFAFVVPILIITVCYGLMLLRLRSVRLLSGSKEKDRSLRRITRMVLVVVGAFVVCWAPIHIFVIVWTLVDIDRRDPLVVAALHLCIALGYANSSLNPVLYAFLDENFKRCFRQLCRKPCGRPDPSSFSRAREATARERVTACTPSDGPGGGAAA
T2 sequence (P35372 whole entry): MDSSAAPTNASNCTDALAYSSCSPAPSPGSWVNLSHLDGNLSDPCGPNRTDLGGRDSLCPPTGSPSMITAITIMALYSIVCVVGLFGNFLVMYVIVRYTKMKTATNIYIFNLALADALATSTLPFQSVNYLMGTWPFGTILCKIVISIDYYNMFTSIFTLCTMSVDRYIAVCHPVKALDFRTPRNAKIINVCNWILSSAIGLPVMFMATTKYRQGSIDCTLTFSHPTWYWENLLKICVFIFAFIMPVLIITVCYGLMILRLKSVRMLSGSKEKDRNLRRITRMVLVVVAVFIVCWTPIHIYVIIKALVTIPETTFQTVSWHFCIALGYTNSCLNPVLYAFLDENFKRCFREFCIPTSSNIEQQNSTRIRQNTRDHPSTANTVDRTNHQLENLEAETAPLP
T5 sequence (P41145 whole entry): as the sequence (P41145 whole entry) above
T7 sequence (P35372 whole entry): as the sequence (P35372 whole entry) above
T6 sequence (P41143 whole entry): as the sequence (P41143 whole entry) above
T4 sequence (P41143 whole entry): as above

Take `CN1/C(=C/C=C/C2=[N+](CCCCCC(=O)NCC(=O)NCC(=O)NCC(=O)NCC(=O)Nc3cccc4c5c([nH]c34)[C@@H]3Oc4c(O)ccc6c4[C@@]34CCN(CC3CC3)[C@H](C6)[C@]4(O)C5)c3ccc(S(=O)(=O)[O-])cc3C2(C)C)C(C)(C)c2cc(S(=O)(=O)O)ccc21` [6-Cy3, 1-(1-(((4bS,8R,8aS,14bR)-7-(cyclopropylmethyl)-1,8a-dihydroxy-5,6,7,8,8a,9,14,14b-octahydro-4,8-methanobenzofuro[2,3-a]pyrido[4,3-b]carbazol-13-yl)amino)-1,4,7,10,13-pentaoxo-3,6,9,12-tetraazaoctadecan-18-yl)-3,3-dimethyl-2-((E)-3-((E)-1,3,3-trimethyl-5-sulfoindolin-2-ylidene)prop-1-en-1-yl)-3H-indol-1-ium-5-sulfonate]: on δOR [1], the IC50 was determined as 47 nM, the Emax was below 5% and the “response in agonist mode” value is on record as “did not elicit a response”. For the same molecule, on human μOR, the affinity corresponds to a Ki of 370 nM and the μ/δ was 220. Further, at human κOR, the affinity, expressed as Ki, was 330 nM and the κ/δ came out at 190. For the same molecule, on wild-type human δOR, the “time after labeling at which labeled δOR molecules could still be observed diffusing on the plasma membrane” value lay within 2 to 3 h. In addition, on δOR [2], inhibition was half-maximal at 38 nM (IC50), the Emax was below 10% and the “response in agonist mode” value is “did not elicit a response”. In addition, the wash resistance at δOR [3] (after 15 min of medium wash out) turned out to be 69 ± 1%.

In the case of `CN1/C(=C/C=C/C=C/C2=[N+](CCCCCC(=O)NCC(=O)NCC(=O)NCC(=O)NCC(=O)Nc3cccc4c5c([nH]c34)[C@@H]3Oc4c(O)ccc6c4[C@@]34CCN(CC3CC3)[C@H](C6)[C@]4(O)C5)c3ccc(S(=O)(=O)[O-])cc3C2(C)C)C(C)(C)c2cc(S(=O)(=O)O)ccc21` [6-Cy5, 1-(1-(((4bS,8R,8aS,14bR)-7-(cyclopropylmethyl)-1,8a-dihydroxy-5,6,7,8,8a,9,14,14b-octahydro-4,8-methanobenzofuro[2,3-a]pyrido[4,3-b]carbazol-13-yl)amino)-1,4,7,10,13-pentaoxo-3,6,9,12-tetraazaoctadecan-18-yl)-3,3-dimethyl-2-((1E,3E)-5-((E)-1,3,3-trimethyl-5-sulfoindolin-2-ylidene)penta-1,3-dien-1-yl)-3H-indol-1-ium-5-sulfonate], the IC50 is 33 nM against δOR [1] and 54 nM against δOR [2]. Moreover, the Emax on δOR [1] and on δOR [2] was below 5% throughout. The “response in agonist mode” value at δOR [1] and at δOR [2] was “did not elicit a response” throughout. For the same molecule, the Ki on human μOR worked out at 100 nM; at human κOR, 78 nM. The μ/δ is 83 on human μOR and 120 in test [6] (setting [8]). Besides, the Kd in test [4] (setting [7]) was found to be 226 ± 131 nM; in [5], 1.8 ± 0.8 nM; in test [6] (setting [7]) it was 215 ± 262 nM. The figures for the κ/δ (in test [4] (setting [8]); on human κOR) were 126 and 65, respectively. At δOR [3] (after 20 min of medium wash out), the wash resistance is given as 93 ± 1%.
